The source of these data is US9561193B2, “Oral and skin care compositions based on a 3,3-Dialkyl-1,1-biphenyl-2,2-diol or a 3,3-Dialkenyl-1,1-biphenyl-2,2-diol” (Colgate-Palmolive Company, priority 2011, dated 2017).

In brackets after ≈: the same amount, converted by molar mass.

What all share (assay type): cell-based
The test system of one data set is Prostaglandin E2 (PGE2). As to the kind of experiment: PGE2 EIA anti-inflammatory assay in IL-1β or HKPG stimulated cells. As to conditions: PGE2 level; human embryo palatal mesenchyme cells; IL-1β (10 ng/ml) or heat-killed P. gingivalis (HKPG); overnight incubation. On the procedure: Prostaglandin E2 (PGE2) is a key mediator of periodontal inflammation and its expression is a well-established as a biomarker associated with gingival inflammation. […] The data of Table 9 were obtained generally according to the following method: A 100 μL aliquot of DMEM media (Dulbecco's Modified Eagle Medium) (Invitrogen, Carlsbad, Calif.) containing either IL-1β (10 ng/ml) (Roche Applied Science, Indianapolis Ind.) or 10^8 heat-killed Prophynomonas gingivalis (HKPG) into each well of a sterile 96-well plate (“mirror plate”). An additional 98 μl aliquot of DMEM media containing either IL-1β or HKPG was added to the first well in each row. […]
Each well of a second plate containing growing cells (human embryo palatal mesenchyme cells, catalog no. CRL-1486; ATCC, Manassas, Va.) is washed twice with PBS, after which any remaining media is aspirated from the wells. […] An additional 30 μL aliquot of media is added to each well to adjust the final volume to 100 μL and the level of PGE2 determined using a detection kit generally according to the manufacturer's instructions (PEG2-EIA Kit, catalogue no. 901-001; Assay Designs Inc, Ann Arbor Mich.) and software (GraphPad Prism, GraphPad Software, Inc., San Diego Calif.).

Another data set has as its system S. mutans. Kind of data set: Minimum Inhibitory Concentration test, oral bacteria. The following applies: Streptococcus mutans, trypticase soy broth, 18-24 hours of incubation. On the procedure: (§1) Table 1 (below) describes the antibacterial efficacy (Minimum Inhibitory Concentration test) of Compound (3) [drawing 5] which is an exemplary compound of the present invention, against common oral bacteria, A. viscosus, S. mutans, S. oralis, S. sanguis, and L. casei. Minimum Inhibitory Concentration values are determined generally according to the following method: A series of two-fold dilutions of compound (3) in trypticase soy broth (Catalog No. 211768; Becton Dickinson, Franklin Lakes N.J.) was prepared in a 96 well plate and a constant amount of bacteria was then added to each well. After 18-24 hours of incubation, bacterial growth was measured with a Spectrophotometric Micro-plate Reader (Powerwave 5×, BioTEK, Winooski Vt.) and the MIC values were determined Results are provided in Table 1: […]

In another data set the test system is L. casei. Described as above. As to conditions: Lacticaseibacillus casei, trypticase soy broth, 18-24 hours of incubation. On the procedure:
as §1

The subject of the next data set is A. viscosus. The data set is described as above. As to conditions: Actinomyces viscosus, trypticase soy broth, 18-24 hours of incubation. The method, then: as §1
For the next data set, the system named is S. sanguis. The data set is described as above. As to conditions: trypticase soy broth, 18-24 hours of incubation. On the procedure:
as §1

The next data set deals with S. oralis. The description is as above. As to conditions: Streptococcus oralis, trypticase soy broth, 18-24 hours of incubation. On the procedure:
as §1

Data set [1] relates to Escherichia coli (E. coli). Kind of data set: Minimum Inhibitory Concentration (MIC), skin bacteria. As to conditions: 18-24 hours of incubation. The method, then: (§2) Compound (3) was evaluated for its antibacterial efficacy against representative skin bacteria such as Staphylococcus aureus (S. aureus), Corynebacterium minutissimum (C. minutissimum), and Escherichia coli (E. coli). Minimum Inhibitory Concentration (MIC), and a Short Interval Kill Test (SIKT) were performed, and the results are described in Table 6 and Table 7 (below). MIC values against three common skin bacteria were determined for Compound (3) using the following method: A series of two-fold dilutions of Compound (3) was prepared in a 96 well plate and a constant amount of bacteria was added to each well. After 18-24 hours of incubation, bacterial growth was measured with a Spectrophotometric Micro-plate Reader and the MIC values were determined.

Data set [2] concerns Corynebacterium minutissimum (C. minutissimum). The data set is described as above. The following applies: 18-24 hours of incubation. On the procedure:
as §2

Data set [3] concerns Staphylococcus aureus (S. aureus). The description is as above. As to conditions: 18-24 hours of incubation. The method, then: as §2
The test system of data set [4] is Escherichia coli (E. coli). Kind of data set: Short Interval Kill Test (SIKT). As to conditions: 1 minute exposure. On the procedure:
(§3) Compound (3) was evaluated for its antibacterial efficacy against representative skin bacteria such as Staphylococcus aureus (S. aureus), Corynebacterium minutissimum (C. minutissimum), and Escherichia coli (E. coli). Minimum Inhibitory Concentration (MIC), and a Short Interval Kill Test (SIKT) were performed, and the results are described in Table 6 and Table 7 (below).
(§4) The SIKT test determines the kill effect of a test compound at a predetermined exposure time. The SIKT values presented below in Table 7, were obtained generally according to the following method: An aliquot of Compound (3) in a volume of 1.2 mL is transferred into a sterile test tube, to which 0.2 mL of a freshly prepared bacterial suspension (OD adjusted to 0.1 at 620 nm) is added and gently mixed. The reaction is neutralized at the 1 minute point by adding a neutralizing broth. The resulting mixture is then further diluted (serial ten-fold dilutions) with Letheen broth and an aliquot of each dilution is plated on MCA (Microbial Count Agar) plates for viable bacterial count.

For data set [5], the system named is Staphylococcus aureus (S. aureus). Kind of data set: Short Interval Kill Test (SIKT). As to conditions: 1 minute exposure. On the procedure: as §3, §4

For `C=CCc1ccc(O)c(-c2cc(CC=C)ccc2O)c1` [Magnolol, reference compound], the IC50 in the data set on Prostaglandin E2 (PGE2) was determined as 0.40 ppm.

`CCCc1cccc(-c2cccc(CCC)c2O)c1O` [Compound (3), [1,1-Biphenyl]-2,2′-diol,3,3′ dipropyl] had an IC50 in the data set with Prostaglandin E2 (PGE2) of 0.25 ppm. The MIC was found to be 7.8 µg/mL (≈ 28.8 µM) against S. mutans; 7.8 µg/mL (≈ 28.8 µM) with L. casei; 3.9 µg/mL (≈ 14.4 µM) in the data set with A. viscosus; 3.9 µg/mL (≈ 14.4 µM) with S. sanguis; 7.8 µg/mL (≈ 28.8 µM) in the data set on S. oralis; 62.5 µg/mL (≈ 231 µM) in data set [1]. In addition, the MIC in [2] was 62.5 µg/mL (≈ 231 µM); in data set [3], 31.2 µg/mL (≈ 116 µM). The “SIKT (% Reduction in viable count in 1 min.)” value is recorded as 99.55% in data set [4] and 99.99% in data set [5].

Usually MIC stands for the lowest concentration found to suppress growth. Lower therefore signals a more susceptible organism.
